Test results reported in patent US11560391B2, “Sulfonylurea compounds as inhibitors of interleukin-1 activity” (Genentech, Inc., priority 2018, dated 2023).

How the values were obtained:
[1] = target: T1, NLRP3 inflammasome (Homo sapiens, UniProt Q96P20); assay: NLRP3 inflammasome activation assay in LPS-primed, nigericin-stimulated PBMCs, IL-1β release; type: cell-based; settings: PBMC, LPS priming, 10 μM nigericin; read-out: PMBC IL-1β IC50
T1 construct: freshly isolated from human peripheral blood from healthy donors; StemCells Technologies; host or cells: primary human PBMCs
T1 sequence (Q96P20 whole entry): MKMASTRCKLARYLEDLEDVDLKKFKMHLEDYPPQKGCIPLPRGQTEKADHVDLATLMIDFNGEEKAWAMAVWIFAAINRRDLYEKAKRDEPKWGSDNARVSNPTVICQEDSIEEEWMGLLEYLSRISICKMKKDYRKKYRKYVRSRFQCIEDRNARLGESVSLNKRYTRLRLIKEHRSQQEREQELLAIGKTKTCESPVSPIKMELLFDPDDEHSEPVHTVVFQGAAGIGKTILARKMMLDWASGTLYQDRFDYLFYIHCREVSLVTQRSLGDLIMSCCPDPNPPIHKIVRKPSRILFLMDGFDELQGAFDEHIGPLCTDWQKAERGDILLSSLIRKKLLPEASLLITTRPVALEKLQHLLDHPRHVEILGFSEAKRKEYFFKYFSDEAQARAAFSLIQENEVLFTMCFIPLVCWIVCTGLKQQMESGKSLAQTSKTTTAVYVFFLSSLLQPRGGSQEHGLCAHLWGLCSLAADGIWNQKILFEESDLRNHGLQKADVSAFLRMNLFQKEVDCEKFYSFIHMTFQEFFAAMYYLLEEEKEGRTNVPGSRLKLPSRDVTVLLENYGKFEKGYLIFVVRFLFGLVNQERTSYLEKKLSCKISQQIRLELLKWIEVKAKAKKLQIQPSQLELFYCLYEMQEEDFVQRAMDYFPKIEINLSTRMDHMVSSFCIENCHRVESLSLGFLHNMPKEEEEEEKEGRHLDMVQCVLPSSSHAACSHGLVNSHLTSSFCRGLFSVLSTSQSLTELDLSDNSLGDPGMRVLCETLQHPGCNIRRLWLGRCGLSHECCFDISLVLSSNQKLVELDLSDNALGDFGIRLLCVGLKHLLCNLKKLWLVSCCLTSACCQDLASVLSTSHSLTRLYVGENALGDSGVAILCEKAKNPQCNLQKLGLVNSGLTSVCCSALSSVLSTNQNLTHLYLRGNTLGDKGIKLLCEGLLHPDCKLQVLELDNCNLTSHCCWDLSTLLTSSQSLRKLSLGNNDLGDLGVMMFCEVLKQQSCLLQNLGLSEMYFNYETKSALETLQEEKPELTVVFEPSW
In short: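 Fresh or cryopreserved human PBMCs primed with 100 ng/mL LPS for 3 h, pre-incubated 30 min with compound (0.00017-10 uM, or 2-fold 20-point series from 40 μM), then stimulated with 10 μM nigericin for 1.5 h at 37 °C. Supernatant IL-1β measured by ELISA or by HTRF (665/620 ratio).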

[2] = tested on: THP-1 ASC-GFP cells; assay: THP-1 ASC-GFP speck assay (NLRP3 inflammasome activation, nigericin); type: cell-based; settings: THP1-ASC-GFP; PMA-differentiated, LPS primed, 10 μM nigericin
In short: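 PMA-differentiated (500 ng/ml, overnight) THP-1 ASC-GFP cells primed with LPS 1 μg/mL for 3 h, pre-treated 30 min with compound (20-point, 2-fold from 40 μM), then nigericin 10 μM for 90 min. After fixation, imaging gives % cells with ASC-GFP specks against Hoechst-counted nuclei.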

[3] = tested on: TNFα; assay: TNFα levels of LPS and nigericin stimulated PBMCs (counter-screen); type: cell-based; settings: Homo sapiens, PBMC; read-out: PMBC TNFα IC50
Description: Human peripheral blood mononuclear cells (PBMCs), consisting of lymphocytes (T, B and NK cells), monocytes and dendritic cells, are freshly isolated from human peripheral blood from healthy donors. Cells are obtained through an IRB approved donor program by iXCells Biotechnologies where all the donors are tested for bacterial and viral infections. Cells are purified from peripheral blood using ficoll gradient centrifugation.
Fresh or cryopreserved PMBCs are seeded in V-bottom 96-well plate at 0.5-1×10^5 cells per well and incubated overnight at 37° C. with 5% CO2 in RPMI 1640 medium with GlutaMAX supplement, 4.5 g/L D-glucose, 10% Fetal Bovine Serum (FBS), […] Sodium Pyruvate, 1% Penicillin/Streptomycin, 10 mM HEPES and 0.05 mM of […]. Freshly isolated or cryopreserved KCs cells are seeded in flat-bottom 96-well plates at 0.6-1.5×10^5 cells/well and incubated overnight at 37° C., 5% CO2 in RPMI 1640 Medium with GlutaMAX supplement, FBS, 1% Penicillin/Streptomycin and 10 mM HEPES. The following day, the cells are primed with 100 ng/mL of lipopolysaccharides (LPS; Sigma Aldrich) in FBS-free RPMI 1640 for 3 h. After the priming step, the media is removed and PBMCs are pre-incubated with serial concentrations of test compounds (0.00017-10 uM) or vehicle (DMSO) for 30 min in FBS-free media prior to addition of the NLRP3 activator. Cells are then stimulated with 10 μM Nigericin (Sigma Aldrich; InvivoGen) for 1.5 h. Plates were centrifuged at 1,500 rpm for 3 minutes to pellet cells and supernatant was transferred into new plates for subsequent experiments.
For ELISA assays cells are seeded into 96-well plates. Post study, supernatants are removed and the levels of mature IL-1β, IL18 and TNFα (Quantikine ELISA, R&D systems) are measured in cell conditioned media by ELISA according to manufacturer's instructions.
TNFα levels of LPS and nigericin stimulated cells are measured by HTRF assay (Cisbio, Bedford, Mass.). […] Measuring TNFalpha production also serves as a technical counter-screen to eliminate compounds that interfere with the HTRF reagents. Thus compounds that inhibit both IL-1β and TNFα levels are triaged for either being non-selective for inflammasome or interfering with the HTRF readout.

[4] = tested on: PBMCs; assay: CTG (CellTiter-Glo) viability assay of compound-treated LPS and nigericin stimulated PBMCs; type: cell-based, human; settings: Homo sapiens, PBMC; read-out: PMBC CTG IC50
In short: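 Human PBMCs primed with 100 ng/mL LPS for 3 h, pre-incubated 30 min with compound (0.00017–10 uM) in FBS-free medium, then stimulated with 10 μM nigericin for 1.5 h. Viability read by CellTiter-Glo ATP luminescence as a cytotoxicity counter-screen.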

| IC50 [1] [nM] | IC50 [2] [nM] | SMILES | IC50 [3] [nM] | IC50 [4] [nM] |
| --- | --- | --- | --- | --- |
| 2470 | 2000 | Cc1cc(C(C)C)c(NC(=O)NS(=O)(=O)c2cnn3c2OCCC3)c(C(C)C)n1 [Example 48, N-((2,4-diisopropyl-6-methylpyridin-3-yl)carbamoyl)-6,7-dihydro-5H-pyrazolo[5,1-b][1,3]oxazine-3-sulfonamide] | > 10000 | 2430 |
| 2010 | 8300 | COc1cc(C(C)C)c(NC(=O)NS(=O)(=O)c2cnn3c2OCC(C)(C)C3)c(C(C)C)n1 [Example 47, N-((2,4-diisopropyl-6-methoxypyridin-3-yl)carbamoyl)-6,6-dimethyl-6,7-dihydro-5H-pyrazolo[5,1-b][1,3]oxazine-3-sulfonamide] | > 10000 | 1160 |
| 3400 | 3300 | CNc1cc(C(C)C)c(NC(=O)NS(=O)(=O)c2cnn3c2OCCC3)c(C(C)C)n1 [Example 53, N-((2,4-diisopropyl-6-(methylamino)pyridin-3-yl)carbamoyl)-6,7-dihydro-5H-pyrazolo[5,1-b][1,3]oxazine-3-sulfonamide] | > 10000 | 880 |
